Reference: the NIST ThermoML archive (doi:10.1021/je501054c)
Where “and” joins values, the source holds several entries; their conditions need not be identical. Equal entries are not always repeated.

Tests used:
[1] = mn = molality of the nth substance listed, in mol/kg; conditions: 100 kPa, Liquid; for viscosity: Capillary tube (Ostwald / Ubbelohde) method; for mass density: Vibrating tube method
[2] = 100 kPa, Liquid; for mass density: Vibrating tube method

CCCCCCn1cc[n+](C)c1.[Cl-] [1-hexyl-3-methylimidazolium chloride] + CC#N
[1]
Conditions	mass density, 298.15 K [kg/m3]	mass density, 303.15 K [kg/m3]	mass density, 308.15 K [kg/m3]	mass density, 313.15 K [kg/m3]	viscosity, 298.15 K [mPa·s]
m1 = 0.0205	777.74	772.53	764.33	756.52	–
m1 = 0.022	–	–	–	–	0.3485
m1 = 0.041	778.81	773.62	765.43	757.67	–
m1 = 0.0461	–	–	–	–	0.3524
m1 = 0.06	779.78	774.61	766.44	758.72	–
m1 = 0.0622	–	–	–	–	0.3551
m1 = 0.0809	780.84	775.69	767.53	759.86	–
m1 = 0.0814	–	–	–	–	0.3589
m1 = 0.1002	781.8	776.66	768.53	760.89	–
m1 = 0.1057	–	–	–	–	0.3631
m1 = 0.1197	782.75	777.64	769.5	761.94	–
m1 = 0.123	–	–	–	–	0.367
m1 = 0.1374	783.62	778.51	770.4	762.83	–
m1 = 0.1423	–	–	–	–	0.3696
m1 = 0.1544	784.44	779.33	771.23	763.72	–
m1 = 0.1606	–	–	–	–	0.3741
m1 = 0.1788	785.56	780.48	772.4	764.93	–
m1 = 0.181	–	–	–	–	0.3776
m1 = 0.1969	786.4	781.33	773.26	765.84	–
m1 = 0.2045	–	–	–	–	0.3813

CCC[n+]1ccn(C)c1.[Br-] [1-methyl-3-propylimidazolium bromide] + CC#N
[1]
Conditions	mass density, 298.15 K [kg/m3]	mass density, 303.15 K [kg/m3]	mass density, 308.15 K [kg/m3]	mass density, 313.15 K [kg/m3]	viscosity, 298.15 K [mPa·s]
m1 = 0.0248	778.67	773.46	763.49	757.41	–
m1 = 0.0251	–	–	–	–	0.3488
m1 = 0.0422	–	–	–	–	0.3525
m1 = 0.0423	780.09	774.88	764.92	758.84	–
m1 = 0.0636	781.79	776.59	766.63	760.57	–
m1 = 0.0644	–	–	–	–	0.3573
m1 = 0.081	783.18	777.98	768.02	761.96	–
m1 = 0.0816	–	–	–	–	0.3607
m1 = 0.1036	784.95	779.74	769.8	763.74	–
m1 = 0.1051	–	–	–	–	0.3633
m1 = 0.123	786.44	781.24	771.31	765.27	–
m1 = 0.1245	–	–	–	–	0.3675
m1 = 0.1437	788.02	782.86	772.93	766.87	–
m1 = 0.1461	–	–	–	–	0.3724
m1 = 0.1636	789.52	784.35	774.44	768.39	–
m1 = 0.1667	–	–	–	–	0.3771
m1 = 0.1835	791.02	785.84	775.93	769.89	–
m1 = 0.1873	–	–	–	–	0.38
m1 = 0.2042	792.57	787.39	777.47	771.44	–
m1 = 0.2082	–	–	–	–	0.3844

CCCCCn1cc[n+](C)c1.[Br-] [1-pentyl-3-methylimidazolium bromide] + CC#N
[1]
Conditions	mass density, 298.15 K [kg/m3]	mass density, 303.15 K [kg/m3]	mass density, 308.15 K [kg/m3]	mass density, 313.15 K [kg/m3]	viscosity, 298.15 K [mPa·s]
m1 = 0.03	779.11	770.63	762.52	755.09	–
m1 = 0.0301	–	–	–	–	0.3532
m1 = 0.0509	780.82	772.34	764.26	756.83	–
m1 = 0.0511	–	–	–	–	0.3605
m1 = 0.0721	782.52	774.06	765.99	758.59	–
m1 = 0.0726	–	–	–	–	0.366
m1 = 0.1016	784.87	776.42	768.38	760.99	–
m1 = 0.1026	–	–	–	–	0.3724
m1 = 0.123	786.55	778.11	770.11	762.71	–
m1 = 0.1245	–	–	–	–	0.3782
m1 = 0.1434	788.15	779.71	771.7	764.33	–
m1 = 0.1455	–	–	–	–	0.3814
m1 = 0.1628	789.62	781.22	773.22	765.86	–
m1 = 0.1655	–	–	–	–	0.3873
m1 = 0.1944	792	783.62	775.67	768.32	–
m1 = 0.1983	–	–	–	–	0.3928
m1 = 0.211	793.26	784.87	776.92	769.58	–
m1 = 0.2155	–	–	–	–	0.3975
m1 = 0.2313	794.76	786.39	778.44	771.12	–
m1 = 0.2367	–	–	–	–	0.4016

CCCCCCn1cc[n+](C)c1.[Br-] [3-hexyl-1-methyl-1H-imidazolium bromide] + CC#N
[1]
Conditions	mass density, 298.15 K [kg/m3]	mass density, 303.15 K [kg/m3]	mass density, 308.15 K [kg/m3]	mass density, 313.15 K [kg/m3]	viscosity, 298.15 K [mPa·s]
m1 = 0.0208	778.37	773.15	763.14	754.27	–
m1 = 0.0209	–	–	–	–	0.353
m1 = 0.0449	780.33	775.12	765.12	756.27	–
m1 = 0.0451	–	–	–	–	0.3625
m1 = 0.0648	781.93	776.74	766.75	757.91	–
m1 = 0.0653	–	–	–	–	0.367
m1 = 0.0817	783.29	778.1	768.12	759.29	–
m1 = 0.0824	–	–	–	–	0.372
m1 = 0.1001	784.72	779.55	769.58	760.76	–
m1 = 0.1011	–	–	–	–	0.3774
m1 = 0.124	786.57	781.42	771.48	762.66	–
m1 = 0.1255	–	–	–	–	0.3842
m1 = 0.1424	788	782.85	772.92	764.1	–
m1 = 0.1445	–	–	–	–	0.3882
m1 = 0.1649	789.72	784.57	774.66	765.86	–
m1 = 0.1676	–	–	–	–	0.3937
m1 = 0.1832	791.1	785.97	776.06	767.28	–
m1 = 0.1866	–	–	–	–	0.3982
m1 = 0.2011	792.44	787.33	777.41	768.63	–
m1 = 0.2052	–	–	–	–	0.4022

CC#N [acetonitrile]
Conditions	viscosity [mPa·s]
[2], 298.15 K, Capillary tube (Ostwald / Ubbelohde) method	0.343

[2]
Conditions	mass density
298.15 K	776.65 kg/m3
303.15 K	771.43 kg/m3 and 768.14 kg/m3
308.15 K	761.45 kg/m3 [middle of 4 runs]
313.15 K	755.34 kg/m3 [middle of 4 runs]
